# Assay results: paper PMC4772116 (Scientific Reports, 2016)
# How the values were obtained:
# [1] = molecular target: human α3β2 nAChR (Homo sapiens, UniProt P17787+P32297); assay: cell-based; assay type: cell-based
# [2] = molecular target: Ls-AChBP (Lymnaea stagnalis, UniProt P58154); assay: biochemical; assay type: binding
# [3] = molecular target: Ac-AChBP (Aplysia californica, UniProt Q8WSF8); assay: biochemical; assay type: binding
# Chain of Ac-AChBP (Q8WSF8 20-236 limits assumed): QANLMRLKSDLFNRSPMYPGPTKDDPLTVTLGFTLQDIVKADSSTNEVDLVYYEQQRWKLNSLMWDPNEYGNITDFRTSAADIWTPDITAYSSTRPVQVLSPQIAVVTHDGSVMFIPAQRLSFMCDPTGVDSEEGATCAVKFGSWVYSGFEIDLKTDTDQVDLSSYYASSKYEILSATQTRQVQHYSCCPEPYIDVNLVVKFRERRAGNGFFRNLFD
# Chain of Ls-AChBP (P58154 20-229 limits assumed): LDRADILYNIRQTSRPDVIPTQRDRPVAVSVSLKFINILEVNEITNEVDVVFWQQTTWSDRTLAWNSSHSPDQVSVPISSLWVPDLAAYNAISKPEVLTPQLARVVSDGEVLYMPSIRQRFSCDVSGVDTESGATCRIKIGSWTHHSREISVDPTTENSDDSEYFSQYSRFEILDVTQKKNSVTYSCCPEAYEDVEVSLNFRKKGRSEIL
# Chain of human α3β2 nAChR (P32297 32-505 limits assumed): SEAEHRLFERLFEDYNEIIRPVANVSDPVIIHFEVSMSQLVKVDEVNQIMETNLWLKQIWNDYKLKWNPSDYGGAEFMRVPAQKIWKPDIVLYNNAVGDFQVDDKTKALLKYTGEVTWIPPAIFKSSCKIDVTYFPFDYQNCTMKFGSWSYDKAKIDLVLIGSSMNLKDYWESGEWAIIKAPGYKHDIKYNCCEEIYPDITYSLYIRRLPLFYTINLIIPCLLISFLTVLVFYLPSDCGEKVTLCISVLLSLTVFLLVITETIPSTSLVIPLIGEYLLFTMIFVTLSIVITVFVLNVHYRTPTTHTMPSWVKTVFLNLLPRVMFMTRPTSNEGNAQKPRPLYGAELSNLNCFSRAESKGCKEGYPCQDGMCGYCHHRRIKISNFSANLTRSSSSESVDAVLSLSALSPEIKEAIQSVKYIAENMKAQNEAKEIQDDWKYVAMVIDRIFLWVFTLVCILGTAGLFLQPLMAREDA
# Chain of human α3β2 nAChR (P17787 26-502 limits assumed): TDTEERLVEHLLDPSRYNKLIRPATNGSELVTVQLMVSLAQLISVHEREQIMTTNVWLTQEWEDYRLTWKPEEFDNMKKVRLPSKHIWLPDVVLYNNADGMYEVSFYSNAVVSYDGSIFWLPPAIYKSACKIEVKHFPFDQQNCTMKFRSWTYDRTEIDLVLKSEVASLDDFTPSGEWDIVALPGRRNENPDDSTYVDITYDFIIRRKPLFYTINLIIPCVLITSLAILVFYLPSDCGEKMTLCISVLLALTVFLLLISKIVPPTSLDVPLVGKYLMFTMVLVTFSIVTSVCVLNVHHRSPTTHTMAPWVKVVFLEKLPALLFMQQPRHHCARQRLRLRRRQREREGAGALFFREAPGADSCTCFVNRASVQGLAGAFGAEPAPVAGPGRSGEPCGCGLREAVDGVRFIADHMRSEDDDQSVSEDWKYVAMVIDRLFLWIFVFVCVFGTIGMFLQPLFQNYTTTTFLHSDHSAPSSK
compound,measurement,setting,value
"CC[C@H](C)[C@@H]1NC(=O)[C@H](Cc2cnc[nH]2)NC(=O)[C@H](CCC(N)=O)NC(=O)[C@H](CC(N)=O)NC(=O)[C@H](CC(N)=O)NC(=O)CNC(=O)[C@H](C)NC(=O)[C@@H]2CSSC[C@H](NC(=O)CN)C(=O)N[C@@H](CSSC[C@@H](C(N)=O)NC1=O)C(=O)N[C@@H](CO)C(=O)N[C@@H](Cc1cnc[nH]1)C(=O)N1CCC[C@H]1C(=O)N[C@@H](C)C(=O)N2 [GIC, α-conotoxin GIC]",IC50,[1],1.13 nM
same,Ki,[2],220 ± 10 nM
same,IC50,[3],29 ± 2 nM
